Converted amounts (≈) assume the structure as drawn.
What was measured:
Format in all cases: cell-based
[1] = test system: Haemophilus influenzae 12214; assay: MIC, standard agar dilution method using HTM medium; settings: for MIC: read-out: minimum inhibitory concentration (MIC), Strain K
Source text: (§1) The biological activities of compounds of the present invention against Haemophilus influenzae have been determined by standard agar dilution method using HTM medium (National Committee for Clinical Laboratory Standards. 2000. Methods for Dilution Antimicrobial Susceptibility Tests for Bacteria that Grow Aerobically, 5th edition. Approved standard M7-A5. National Committee for Clinical Laboratory Standards, Wayne, Pa.).

[2] = test system: Haemophilus influenzae QK50; assay: as above; settings: for MIC: read-out: minimum inhibitory concentration (MIC), Strain L
Source text: as §1

[3] = test system: Haemophilus influenzae B1501; assay: as above; settings: for MIC: read-out: minimum inhibitory concentration (MIC), Strain M
Source text: as §1

[4] = test system: Haemophilus influenzae QK12/87; assay: as above; settings: for MIC: read-out: minimum inhibitory concentration (MIC), Strain I
Source text: as §1

[5] = test system: Staphylococcus aureus 1086; assay: MIC, standard microdilution technique; settings: for MIC: read-out: minimum inhibitory concentration (MIC), Strain B
Source text: (§2) The antibacterial activities of the compounds have been determined by standard microdilution technique (National Committee for Clinical Laboratory Standards. 2000. Methods for Dilution Antimicrobial Susceptibility Tests for Bacteria that Grow Aerobically, 5th edition. Approved standard M7-A5. National Committee for Clinical Laboratory Standards, Wayne, Pa.).

[6] = test system: Streptococcus pneumoniae l/l; assay: MIC, standard microdilution technique; settings: for MIC: read-out: minimum inhibitory concentration (MIC), Strain E
Source text: as §2

[7] = test system: Staphylococcus aureus 745; assay: MIC, standard microdilution technique; settings: for MIC: read-out: minimum inhibitory concentration (MIC), Strain C
Source text: as §2

[8] = test system: Staphylococcus aureus ATCC 29213; assay: MIC, standard microdilution technique; settings: for MIC: ATCC29213, read-out: minimum inhibitory concentration (MIC), Strain A
Source text: as §2

[9] = test system: Escherichia coli ATCC 25922; assay: MIC, standard microdilution technique; settings: for MIC: ATCC25922, read-out: minimum inhibitory concentration (MIC), Strain D
Source text: as §2

[10] = test system: Streptococcus pneumoniae ¼; assay: MIC, standard microdilution technique; settings: for MIC: read-out: minimum inhibitory concentration (MIC), Strain F
Source text: as §2

[11] = test system: Streptococcus pneumoniae 12288; assay: MIC, standard microdilution technique; settings: for MIC: read-out: minimum inhibitory concentration (MIC), Strain H
Source text: as §2

[12] = test system: Streptococcus pneumoniae SL199T; assay: MIC, standard microdilution technique; settings: for MIC: read-out: minimum inhibitory concentration (MIC), Strain G
Source text: as §2

SMILES | MIC [1] | MIC [2] | MIC [3] | MIC [4] | MIC [5] | MIC [7] | MIC [8] | MIC [9] | minimum inhibitory concentration (MIC), Strain K [1] | minimum inhibitory concentration (MIC), Strain L [2] | minimum inhibitory concentration (MIC), Strain M [3] | minimum inhibitory concentration (MIC), Strain I [4] | minimum inhibitory concentration (MIC), Strain B [5] | minimum inhibitory concentration (MIC), Strain E [6] | minimum inhibitory concentration (MIC), Strain C [7] | minimum inhibitory concentration (MIC), Strain A [8] | minimum inhibitory concentration (MIC), Strain D [9] | minimum inhibitory concentration (MIC), Strain F [10] | minimum inhibitory concentration (MIC), Strain H [11] | minimum inhibitory concentration (MIC), Strain G [12] | further results
CC[C@H]1OC(=O)[C@@](C)(F)C(=O)[C@H](C)[C@@H](O[C@@H]2O[C@H](C)C[C@H](N(C)C)[C@H]2O)[C@](C)(OC)C[C@@H](C)C(=O)[C@H](C)[C@H]2[C@@H](SCc3ccc(OC)cc3)C(=O)O[C@@]21C (single isomer, unassigned) [Example 1, (3R or S, 3aR, 4R or S, 6R, 8R, 9R, 10R, 12S, 15R, 15aS)-15-Ethyl-12-fluorooctahydro-8-methoxy-3-[[(4-methoxyphenyl)methyl]thio]-4,6,8,10,12,15a-hexamethyl-9-[[3,4,6-trideoxy-3-(dimethylamino)-β-D-xylo-hexopyranosyl]oxy]-2H-furo [2,3-c] oxacyclotetradecin-2,5,11,13 (3H,6H,12H)-tetrone] | > 32 µg/mL | 32 µg/mL (≈ 40.9 µM) | 32 µg/mL (≈ 40.9 µM) | > 32 µg/mL | 2 µg/mL (≈ 2.56 µM) | > 32 µg/mL | 2 µg/mL (≈ 2.56 µM) | > 32 µg/mL | – | – | – | – | – | – | – | – | – | – | – | – | MIC [6]: 0.5 µg/mL (≈ 0.639 µM); MIC [10]: 8 µg/mL (≈ 10.2 µM); MIC [11]: > 32 µg/mL; MIC [12]: 32 µg/mL (≈ 40.9 µM)
CC[C@H]1OC(=O)[C@@](C)(F)C(=O)[C@H](C)[C@@H](O[C@@H]2O[C@H](C)C[C@H](N(C)C)[C@H]2O)[C@](C)(OC)C[C@@H](C)C(=O)[C@H](C)[C@H]2[C@@H](S(=O)(=O)Cc3ccc(OC)cc3)C(=O)O[C@@]21C (single isomer, unassigned) [Example 2] | – | – | – | – | – | – | – | – | >32 µg/mL | 32 µg/mL (≈ 39.3 µM) | >32 µg/mL | >32 µg/mL | 2 µg/mL (≈ 2.46 µM) | <=0.06 μg/ml | >32 µg/mL | 2 µg/mL (≈ 2.46 µM) | >32 µg/mL | 4 µg/mL (≈ 4.91 µM) | >32 µg/mL | >32 µg/mL | –
CC[C@H]1OC(=O)[C@H](C)C(=O)[C@H](C)[C@@H](O[C@@H]2O[C@H](C)C[C@H](N(C)C)[C@H]2O)[C@](C)(OC)C[C@@H](C)C(=O)[C@H](C)[C@H]2[C@@H](SSc3ncccc3[N+](=O)[O-])C(=O)O[C@@]21C (single isomer, unassigned) [Example 3] | – | – | – | – | – | – | – | – | >32 µg/mL | >32 µg/mL | >32 µg/mL | >32 µg/mL | 2 µg/mL (≈ 2.51 µM) | <=0.06 μg/ml | >32 µg/mL | 2 µg/mL (≈ 2.51 µM) | >32 µg/mL | 16 µg/mL (≈ 20.1 µM) | >32 µg/mL | 32 µg/mL (≈ 40.1 µM) | –
CC[C@H]1OC(=O)[C@H](C)C(=O)[C@H](C)[C@@H](O[C@@H]2O[C@H](C)C[C@H](N(C)C)[C@H]2O)[C@](C)(OC)C[C@@H](C)C(=O)[C@H](C)[C@H]2[C@@H](SCC(=O)OC)C(=O)O[C@@]21C (single isomer, unassigned) [Example 5] | – | – | – | – | – | – | – | – | 32 µg/mL (≈ 44.7 µM) | 32 µg/mL (≈ 44.7 µM) | 16 µg/mL (≈ 22.3 µM) | 32 µg/mL (≈ 44.7 µM) | 1 µg/mL (≈ 1.4 µM) | 0.125 µg/mL (≈ 0.175 µM) | >32 µg/mL | 1 µg/mL (≈ 1.4 µM) | >32 µg/mL | >32 µg/mL | >32 µg/mL | >32 µg/mL | –
CC[C@H]1OC(=O)[C@@](C)(F)C(=O)[C@H](C)[C@@H](O[C@@H]2O[C@H](C)C[C@H](N(C)C)[C@H]2O)[C@](C)(OC)C[C@@H](C)C(=O)[C@H](C)[C@H]2[C@@H](SCCCn3cc(-c4ccccc4)cn3)C(=O)O[C@@]21C (single isomer, unassigned) [Example 10] | – | – | – | – | – | – | – | – | >32 µg/mL | 32 µg/mL (≈ 37.8 µM) | >32 µg/mL | 32 µg/mL (≈ 37.8 µM) | 0.5 µg/mL (≈ 0.591 µM) | 0.5 µg/mL (≈ 0.591 µM) | >32 µg/mL | 0.5 µg/mL (≈ 0.591 µM) | >32 µg/mL | 2 µg/mL (≈ 2.36 µM) | 16 µg/mL (≈ 18.9 µM) | 8 µg/mL (≈ 9.46 µM) | –
CC[C@H]1OC(=O)[C@@](C)(F)C(=O)[C@H](C)[C@@H](O[C@@H]2O[C@H](C)C[C@H](N(C)C)[C@H]2O)[C@](C)(OC)C[C@@H](C)C(=O)[C@H](C)[C@H]2[C@@H](SCCn3cnc(-c4cccnc4)n3)C(=O)O[C@@]21C (single isomer, unassigned) [Example 12, (3R or S, 3aR, 4R or S, 6R, 8R, 9R, 10R, 12S, 15R, 15aS)-15-Ethyl-12-fluorooctahydro-8-methoxy-4,6,8,10,12,15a-hexamethyl-3-[[2-[3-(3-pyridinyl)-1H-1,2,4-triazole-1-yl]ethyl]thio]-9-[[3,4,6-trideoxy-3-(dimethylamino)-β-D-xylo-hexopyranosyl]oxy]-2H-furo [2,3-c] oxacyclotetradecin-2,5,11,13 (3H,6H,12H)-tetrone] | 4 µg/mL (≈ 4.8 µM) | 4 µg/mL (≈ 4.8 µM) | 4 µg/mL (≈ 4.8 µM) | 8 µg/mL (≈ 9.59 µM) | ≤ 0.06 µg/mL | > 32 µg/mL | ≤ 0.06 µg/mL | > 32 µg/mL | – | – | – | – | – | – | – | – | – | – | – | – | MIC [6]: ≤ 0.06 µg/mL; MIC [10]: ≤ 0.06 µg/mL; MIC [11]: 4 µg/mL (≈ 4.8 µM); MIC [12]: 0.25 µg/mL (≈ 0.3 µM)
CC[C@H]1OC(=O)[C@H](C)C(=O)[C@H](C)[C@@H](O[C@@H]2O[C@H](C)C[C@H](N(C)C)[C@H]2O)[C@](C)(OC)C[C@@H](C)C(=O)[C@H](C)[C@H]2[C@@H](S(=O)(=O)CCNC(=O)c3cccnc3)C(=O)O[C@@]21C (single isomer, unassigned) [Example 43, (3R or S, 3aR, 4R or S, 6R, 8R, 9R, 10R, 12R, 15R, 15aS) -15-Ethyloctahydro-8-methoxy-4,6,8,10,12,15a-hexamethyl-3-[[2-[(3-pyridinylcarbonyl)amino]ethyl]sulfonyl]-9-[[-3,4,6-trideoxy-3-(dimethylamino)-β-D-xylo-hexopyranosyl]oxy]-2H-furo [2,3-c] oxacyclotetradecin-2,5,11,13 (3H,6H,12H)-tetrone] | 16 µg/mL (≈ 19.4 µM) | 16 µg/mL (≈ 19.4 µM) | 8 µg/mL (≈ 9.71 µM) | 16 µg/mL (≈ 19.4 µM) | 1 µg/mL (≈ 1.21 µM) | > 32 µg/mL | 2 µg/mL (≈ 2.43 µM) | > 32 µg/mL | – | – | – | – | – | – | – | – | – | – | – | – | MIC [11]: > 32 µg/mL; MIC [12]: 32 µg/mL (≈ 38.8 µM)

From patent US6995143B2, “Macrolides with antibacterial activity” (Basilea Pharmaceutica AG, priority 2002, dated 2006)
